Laboratory results reported in patent US8618095B2 (Rigel Pharmaceuticals, Inc., priority 2010, dated 2013).

tested on: Human mast cells (CHMC); assay: LD Tryptase release assay in CHMC (mast cell activation induced by FcγR cross-linking); format: cell-based; details: Homo sapiens, Mast cell, anti-IgG stimulation, activity of tryptase released upon degranulation
Experimental: Compounds were assayed for inhibition of mast cell activation induced by FcγR cross-linking by measuring the activity of tryptase released upon degranulation as follows:
Human mast cells were cultured and differentiated from […] progenitor cell as described in U.S. Patent Publication No. 2005-234049, incorporated herein by reference. For example, 65 μL of various concentrations of the compound to be assayed were prepared in MT (137 mM NaCl, 2.7 mM KCl, 1.8 mM CaCl2, 1.0 mM MgCl2, 5.6 mM Glucose, 20 mM Hepes (pH 7.4), 0.1% Bovine Serum Albumin, (Sigma A4503)) containing 2% MeOH and 1% DMSO, or control buffer were added to duplicate 96-well V-bottom plates. Pelleted and re-suspended (in warm MT) CHMC cells (65 μL) were added to each 96-well plate, mixed and incubated for 1 hour at 37° C. 25 μl of 6× anti-IgG Rabbit anti-human IgG, Affinity purified (Bethyl Laboratories Cat No. A80-105A3) final concentration 1 μg/mL, was added to the test wells. MT (25 μL) was added to control wells. After a 60-minute incubation at 37° C., cells and cell debris were pelleted by centrifugation at 1000 rpm for 10 min and tryptase and leukotriene C4 levels were measured.
To measure tryptase levels, 25 μL of supernatant from each well was transferred to a fresh 96-well black bottom plate, to which 100 μL of fresh tryptase substrate solution [(Z-Ala-Lys-Arg-AMC2TFA; Enzyme Systems Products, #AMC-246)] 1:2000 in tryptase assay buffer [0.1 M Hepes (pH 7.5), 10% w/v Glycerol, 10 μM Heparin (Sigma H-4898) 0.01% NaN3] was added. After 30 minute incubation at room temperature, the optical density of the plates is measured at 355 nm/460 nm on a spectrophotometric plate reader. Table 1 provides the IC50 values.
Compounds of the disclosure were assayed for their ability to inhibit mast cell activation induced by FcγR cross-linking by measuring the activity of tryptase released upon degranulation. The IC50 values for the LD Tryptase assay are presented in Table 2, in which “0” is >100 μM; “A” is 1-100 μM; “B” is 0.5-1 μM; “C” is 0.1-0.5 μM; and “D” is less than 0.1 μM: […]

SMILES	IC50 [nM]
CC1(C)Oc2ccc(Nc3nc(Nc4ccc(N5CCCCC5)cc4)ncc3F)nc2NC1=O [Compound 78, N4-(2,2-dimethyl-3,4-dihydro-3-oxo-2H-pyrido[3,2-b][1,4]oxazin-6-yl)-5-fluoro-N2-[4-(piperidin-1-yl)phenyl]-2,4-pyrimidinediamine]	1000 to 100000
[2H]C1([2H])OC([2H])([2H])C([2H])([2H])N(c2ccc(Nc3ncc(F)c(Nc4ccc5c(n4)NC(=O)C(C)(C)O5)n3)cn2)C1([2H])[2H] [Compound 107, N4-(2,2-dimethyl-3,4-dihydro-3-oxo-2H-pyrido[3,2-b][1,4]oxazin-6-yl)-5-fluoro-N2-[6-(2,2,3,3,5,5,6,6-d8-morpholino)pyridin-3-yl]-2,4-pyrimidinediamine]	< 100
COCC1CCN(c2ccc(Nc3ncc(F)c(Nc4ccc5c(n4)NC(=O)C(C)(C)O5)n3)cc2)CC1 [Compound 155, N4-(2,2-dimethyl-3,4-dihydro-3-oxo-2H-pyrido[3,2-b][1,4]oxazin-6-yl)-5-fluoro-N2-[4-(4-(methoxymethyl)piperidin-1-yl)phenyl]-2,4-pyrimidinediamine]	100 to 500
CC1(C)Oc2ccc(Nc3nc(Nc4ccc(N5CCS(=O)(=O)CC5)cc4)ncc3F)nc2NC1=O [Compound 149, N4-(2,2-dimethyl-3,4-dihydro-3-oxo-2H-pyrido[3,2-b][1,4]oxazin-6-yl)-5-fluoro-N2-[4-(1,1-dioxidothiomorpholin-4-yl)phenyl]-2,4-pyrimidinediamine]	< 100
[2H]C1([2H])OC([2H])([2H])C([2H])([2H])N(c2ccc(Nc3ncc(F)c(Nc4ccc5c(n4)NC(=O)CO5)n3)cc2)C1([2H])[2H] [Compound 130, N4-(2,2-dimethyl-3,4-dihydro-3-oxo-2H-pyrido[3,2-b][1,4]oxazin-6-yl)-5-fluoro-N2-[4-(2,2,3,3,5,5,6,6-d8-morpholino)phenyl]-2,4-pyrimidinediamine]	< 100
CN(C[C@@H]1CCCO1)c1ccc(Nc2ncc(F)c(Nc3ccc4c(n3)NC(=O)C(C)(C)O4)n2)cn1 [Compound 109]	100 to 500
C=C1COCCN1c1ccc(Nc2ncc(F)c(Nc3ccc4c(n3)NC(=O)C(C)(C)O4)n2)cn1 [Compound 58, N4-(2,2-dimethyl-3,4-dihydro-3-oxo-2H-pyrido[3,2-b][1,4]oxazin-6-yl)-5-fluoro-N2-[6-(3-methylenemorpholino)pyridin-3-yl]-2,4-pyrimidinediamine]	1000 to 100000
Cc1cc(Nc2ncc(F)c(Nc3ccc4c(n3)NC(=O)C(C)(C)O4)n2)ccc1N1CCOCC1 [Compound 23, N4-(2,2-dimethyl-3,4-dihydro-3-oxo-2H-pyrido[3,2-b][1,4]oxazin-6-yl)-5-fluoro-N2-[3-methyl-4-morpholinophenyl]-2,4-pyrimidinediamine]	< 100
C[C@H]1CN(c2ccc(Nc3ncc(F)c(Nc4ccc5c(n4)NC(=O)CO5)n3)cc2)CCO1 [Compound 80]	< 100
CC1(C)Oc2ccc(Nc3nc(Nc4ccc(N5CCC(C(N)=O)C5)nc4)ncc3F)nc2NC1=O (stereo not shown) [Compound 70, N4-(2,2-dimethyl-3,4-dihydro-3-oxo-2H-pyrido[3,2-b][1,4]oxazin-6-yl)-5-fluoro-N2-[6-(3-(aminocarbonyl)pyrrolidin-1-yl)pyridin-3-yl]-2,4-pyrimidinediamine]	500 to 1000
CC1(C)Oc2ccc(Nc3nc(Nc4ccc(N5CCC(C#N)CC5)cc4)ncc3F)nc2NC1=O [Compound 154, N4-(2,2-dimethyl-3,4-dihydro-3-oxo-2H-pyrido[3,2-b][1,4]oxazin-6-yl)-5-fluoro-N2-[4-(4-cyanopiperidin-1-yl)phenyl]-2,4-pyrimidinediamine]	100 to 500
C[C@@H]1COCCN1c1ccc(Nc2ncc(F)c(Nc3ccc4c(n3)NC(=O)C(C)(C)O4)n2)cc1 [Compound 81]	100 to 500
CC1(C)Oc2ccc(Nc3nc(Nc4ccc(N5C[C@@H]6C[C@H]5CO6)nc4)ncc3F)nc2NC1=O [Compound 92, N4-(2,2-dimethyl-3,4-dihydro-3-oxo-2H-pyrido[3,2-b][1,4]oxazin-6-yl)-5-fluoro-N2-[6-((1S,4S)-5-oxa-2-aza-bicyclo[2.2.1]heptan-2-yl)pyridin-3-yl]-2,4-pyrimidinediamine]	< 100
